We go through two molecules from article PMC5520492, “Inhibition of DNA2 nuclease as a therapeutic strategy targeting replication stress in cancer cells” (Oncogenesis, 2017).

Molecules are shown by their SMILES.

One may read the IC50 as the midpoint of a concentration-inhibition curve.

This assay has as its target T1, yDna2 (Saccharomyces cerevisiae, UniProt P38859).
T1 construct: made in house
The experiment in a line: High-throughput fluorescence nuclease assay with yDna2 (triply labeled (dT)30 ssDNA). The settings on record: yeast Dna2 0.09 nM; substrate 0.1 μM; Figure 3c; read-out: IC50 (yeast Dna2), dose-response in vitro. The assay is classed as biochemical, yeast. The procedure:
The screen entailed the use of oligonucleotide (dT)30 having a reporter fluorescent moiety, 6-FAM on the 5′ end, and the dark quenching group, Iowa Black FQ, on the 3′ end. In addition, a second dark quencher ZEN was placed between the 9th and 10th base (Figure 2a). The fluorescence emitted by 6-FAM is quenched by FRET, but it increases when DNA is degraded by Dna2. […] The inhibitory activity of the compounds was determined as a reduction in fluorescent signal compared with the dimethylsulfoxide (DMSO) only control. […] We screened ~50 000 chemical compounds from six different libraries (Supplementary Table S1) to identify chemical inhibitors of the Dna2 nuclease activity. […] The DNA2 nuclease domain is well conserved among eukaryotes, and therefore we reasoned that inhibitors of yDna2 will likely also work with the human counterpart.
Initial screen, it was performed with yDna2.[22] Then, the top candidate compounds were tested on hDNA2. Identical reaction conditions were used for assaying the nuclease activity of yDna2 and hDNA2. […] The reaction buffer was 20 mM HEPES/NaOH, pH 7.5, 60 mM KCl, 1 mM DTT, 100 μg/ml bovine serum albumin and 0.05% Triton X-100. The nuclease assay was initiated by adding MgCl2 (3 mM final concentration). T5 nuclease was assayed in the buffer (50 mM potassium acetate, pH 7.9, 20 mM Tris-acetate, 10 mM magnesium acetate and 1 mM DTT) provided by the vendor (NEB, Ipswich, MA, USA). The concentration of the fluorogenic substrate was 0.1 μM. The optimal amount of yDna2, hDNA2 and T5 nuclease was determined by utilizing the Kaleidagraph software (Reading, PA, USA) to fit the data according to Michaelis Menton Kinetics (V=V0+Vmax*x/(Km+x)). […] The Z’ value was calculated as previously described.[50] Cell proliferation was determined using 4,6-diamidino-2-phenylindole staining followed by high-throughput microscopy in a 384-well plate setup. In brief, cells were fixed with formaldehyde, washed and stained with 4,6-diamidino-2-phenylindole and the number of nuclei in each well counted by automated microscopy. The data were analyzed as described.[51]

T1 sequence (P38859 whole entry): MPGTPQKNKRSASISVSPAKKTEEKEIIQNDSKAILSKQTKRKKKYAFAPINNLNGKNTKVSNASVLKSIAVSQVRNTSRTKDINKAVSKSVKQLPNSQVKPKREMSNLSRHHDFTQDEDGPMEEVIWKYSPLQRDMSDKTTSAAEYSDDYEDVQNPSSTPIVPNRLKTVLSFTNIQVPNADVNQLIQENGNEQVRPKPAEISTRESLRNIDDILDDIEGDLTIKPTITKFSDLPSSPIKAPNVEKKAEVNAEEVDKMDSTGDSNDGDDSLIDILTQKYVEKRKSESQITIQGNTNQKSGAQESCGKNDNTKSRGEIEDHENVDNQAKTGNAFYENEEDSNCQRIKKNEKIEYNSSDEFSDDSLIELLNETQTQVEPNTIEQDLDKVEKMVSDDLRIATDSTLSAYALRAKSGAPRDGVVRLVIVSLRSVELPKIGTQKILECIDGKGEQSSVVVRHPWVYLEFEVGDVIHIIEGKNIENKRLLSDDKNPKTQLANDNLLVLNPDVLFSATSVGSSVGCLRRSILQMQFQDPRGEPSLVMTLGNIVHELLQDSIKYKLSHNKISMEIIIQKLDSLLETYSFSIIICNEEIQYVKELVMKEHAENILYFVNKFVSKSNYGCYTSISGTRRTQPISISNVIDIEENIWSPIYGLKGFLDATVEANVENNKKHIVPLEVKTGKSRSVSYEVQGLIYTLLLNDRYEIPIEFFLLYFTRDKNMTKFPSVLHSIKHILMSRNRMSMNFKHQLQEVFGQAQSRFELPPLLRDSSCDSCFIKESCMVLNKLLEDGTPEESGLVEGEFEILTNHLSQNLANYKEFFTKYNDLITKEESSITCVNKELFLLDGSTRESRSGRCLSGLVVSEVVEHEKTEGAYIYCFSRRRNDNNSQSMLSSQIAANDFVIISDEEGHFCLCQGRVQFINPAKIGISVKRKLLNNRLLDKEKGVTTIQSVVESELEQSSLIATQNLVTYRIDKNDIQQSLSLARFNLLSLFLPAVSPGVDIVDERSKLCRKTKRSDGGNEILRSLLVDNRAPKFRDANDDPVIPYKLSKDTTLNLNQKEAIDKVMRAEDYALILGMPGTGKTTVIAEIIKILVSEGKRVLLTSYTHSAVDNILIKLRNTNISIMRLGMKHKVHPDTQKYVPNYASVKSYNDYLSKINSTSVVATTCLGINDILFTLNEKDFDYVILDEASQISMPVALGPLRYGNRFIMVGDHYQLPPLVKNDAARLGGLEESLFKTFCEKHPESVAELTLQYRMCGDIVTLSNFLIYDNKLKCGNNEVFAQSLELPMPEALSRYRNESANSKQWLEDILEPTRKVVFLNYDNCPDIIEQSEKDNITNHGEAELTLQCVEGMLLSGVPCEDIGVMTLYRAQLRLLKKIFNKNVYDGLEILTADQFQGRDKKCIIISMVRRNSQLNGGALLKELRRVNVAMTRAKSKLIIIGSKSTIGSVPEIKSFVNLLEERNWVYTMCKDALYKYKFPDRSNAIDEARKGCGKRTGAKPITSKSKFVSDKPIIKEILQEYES

For `O=C1C(=O)c2cc([N+](=O)[O-])ccc2-c2ccccc21` [NSC-5195242, 2-nitrophenanthrene-9,10-dione], the IC50 was found to be 3900 nM.

Take `NC1=C(Br)C(=O)c2ncccc2C1=O` [NSC-105808, 6-amino-7-bromoquinoline-5,8-dione]: the IC50 turned out to be 2000 nM.
